The values below come from article PMC9848286, “Design, synthesis, and biological investigation of oxadiazolyl, thiadiazolyl, and pyrimidinyl linked antipyrine derivatives as potential non-acidic anti-inflammatory agents” (Journal of Enzyme Inhibition and Medicinal Chemistry, 2023).

A value given as a limit tells only on which side of the number the result lay.

Data set [1] concerns the target T1, COX-1 (Ovis aries, UniProt P05979).
T1 sequence (P05979 25-600): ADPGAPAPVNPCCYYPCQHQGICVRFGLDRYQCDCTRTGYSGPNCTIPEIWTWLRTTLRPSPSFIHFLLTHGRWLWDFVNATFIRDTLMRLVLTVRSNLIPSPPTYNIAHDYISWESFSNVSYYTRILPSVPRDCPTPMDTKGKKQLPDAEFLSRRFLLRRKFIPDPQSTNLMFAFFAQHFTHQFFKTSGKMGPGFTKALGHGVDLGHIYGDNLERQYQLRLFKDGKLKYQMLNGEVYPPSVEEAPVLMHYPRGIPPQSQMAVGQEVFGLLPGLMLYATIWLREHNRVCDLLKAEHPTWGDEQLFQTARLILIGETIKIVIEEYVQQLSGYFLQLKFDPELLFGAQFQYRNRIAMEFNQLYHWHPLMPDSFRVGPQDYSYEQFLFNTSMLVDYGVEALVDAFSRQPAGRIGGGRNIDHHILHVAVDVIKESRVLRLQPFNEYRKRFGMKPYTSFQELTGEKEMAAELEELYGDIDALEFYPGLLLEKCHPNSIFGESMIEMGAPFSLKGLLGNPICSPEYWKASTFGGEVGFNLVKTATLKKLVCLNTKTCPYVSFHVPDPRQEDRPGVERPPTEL
The data set can be described thus: In vitro COX-1 inhibition, colorimetric screening assay kit. Conditions: for HillSlope (best-fit value), COX-1 inhibition / LogIC50 (best-fit value), COX-1 inhibition: supplementary dose-response curve.
Experimental: (§1) This assay examined the inhibitory potency of the target structures towardboth COX isoforms via colorimetric screening assay kit (Cayman Chemical, MI, United States) based on the directions provided by the manufacturer. ELISA reader Thermo Scientific Multiskan® EX (Thermo scientific, United States) was used. […] Serial dilutions of CLX, as a reference standard, and tested compounds at concentrations of 1000, 300, 100, 30, 10, 3, 1, and 0.30 nM were used in the assay. IC50 of the tested compounds were determined using three different experiments. The selectivity (SI) of each ompound was measured using the COX-2/COX-1 ratio, which compares the IC50 of COX-2 and COX-1.

Data set [2] has as its target T2, COX-2 (Homo sapiens, UniProt P35354).
T2 sequence (P35354 18-604): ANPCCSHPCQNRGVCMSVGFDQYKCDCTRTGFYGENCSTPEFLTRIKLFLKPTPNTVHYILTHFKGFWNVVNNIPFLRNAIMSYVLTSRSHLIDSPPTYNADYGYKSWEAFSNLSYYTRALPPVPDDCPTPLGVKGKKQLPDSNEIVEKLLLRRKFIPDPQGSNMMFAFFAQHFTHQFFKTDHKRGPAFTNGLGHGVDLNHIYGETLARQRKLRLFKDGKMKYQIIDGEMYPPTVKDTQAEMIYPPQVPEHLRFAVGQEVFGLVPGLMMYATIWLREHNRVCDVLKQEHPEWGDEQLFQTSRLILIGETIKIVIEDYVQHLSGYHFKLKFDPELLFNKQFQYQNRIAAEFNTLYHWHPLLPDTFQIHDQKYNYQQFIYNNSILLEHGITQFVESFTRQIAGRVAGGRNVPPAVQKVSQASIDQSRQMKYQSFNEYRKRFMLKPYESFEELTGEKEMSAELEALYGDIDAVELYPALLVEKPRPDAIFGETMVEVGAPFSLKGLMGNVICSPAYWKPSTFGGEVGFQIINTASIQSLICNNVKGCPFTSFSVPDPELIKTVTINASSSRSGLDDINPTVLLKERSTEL
The data set can be described thus: In vitro COX-2 inhibition, colorimetric screening assay kit. Conditions: for (SI) in vitro COX-2 selectivity index: COX-1 IC50/COX-2 IC50; for HillSlope (best-fit value), COX-2 inhibition / LogIC50 (best-fit value), COX-2 inhibition: supplementary dose-response curve.
Experimental: as §1

With `Cc1c(NC(=O)CSc2nnc(NC(=O)Nc3ccc(Cl)cc3)s2)c(=O)n(-c2ccccc2)n1C` [6d, 2-((5–(3-(4-Chlorophenyl)ureido)-1,3,4-thiadiazol-2-yl)thio)-N-(1,5-dimethyl-3-oxo-2-phenyl-2,3-dihydro-1H-pyrazol-4-yl)acetamide], the melting point (as a rule, the temperature, or range, at which the solid turns liquid) was in the range of 248 to 250 °C. In addition, in data set [1], the midpoint of inhibition, the IC50, lay at 106 ± 2.16 nM; the “HillSlope (best-fit value), COX-1 inhibition” value (shortened to “HillSlope … COX-1 inhibition”) was -0.3655; the “LogIC50 (best-fit value), COX-1 inhibition” value (shortened to “LogIC50 … COX-1 inhibition”) is listed as 2.025 Log (nM). Besides, in data set [2], the midpoint of inhibition, the IC50, lay at 169 ± 2.34 nM; the “(SI) in vitro COX-2 selectivity index” value was found to be 0.63; the “HillSlope (best-fit value), COX-2 inhibition” value (“HillSlope … COX-2 inhibition” for short) is recorded as -0.3273; the “LogIC50 (best-fit value), COX-2 inhibition” value (from here on “LogIC50 … COX-2 inhibition”) is recorded as 2.228 Log (nM).
With `Cc1c(NC(=O)CSc2nnc(-c3ccc([N+](=O)[O-])cc3)o2)c(=O)n(-c2ccccc2)n1C` [4d, N-(1,5-Dimethyl-3-oxo-2-phenyl-2,3-dihydro-1H-pyrazol-4-yl)-2-((5–(4-nitrophenyl)-1,3,4-oxadiazol-2-yl)thio)acetamide], the melting point lay within 214 to 216 °C. For the same molecule, in data set [1], the IC50 (as a rule, the point on the concentration scale where inhibition reaches its midpoint) is 50.8 ± 2.18 nM; the “HillSlope … COX-1 inhibition” value is on record as -0.3754; the “LogIC50 … COX-1 inhibition” value is 1.705 Log (nM). In data set [2], it took 65.5 ± 2.23 nM to reach half-maximal inhibition (IC50); the “(SI) in vitro COX-2 selectivity index” value is 0.77; the “HillSlope … COX-2 inhibition” value is recorded as -0.3340; the “LogIC50 … COX-2 inhibition” value is 1.817 Log (nM).
The molecule `Cc1c(NC(=O)CSc2nnc(NC(=O)Nc3ccccc3)s2)c(=O)n(-c2ccccc2)n1C` [6a, N-(1,5-Dimethyl-3-oxo-2-phenyl-2,3-dihydro-1H-pyrazol-4-yl)-2-((5–(3-phenylureido)-1,3,4-thiadiazol-2-yl)thio)acetamide] had a melting point of 254 to 256 °C. Besides, in data set [1], half-maximal inhibition (IC50) required 132 ± 2.36 nM; the “HillSlope … COX-1 inhibition” value is recorded as -0.3215; the “LogIC50 … COX-1 inhibition” value is recorded as 2.119 Log (nM). Moreover, in data set [2], half-maximal inhibition (IC50) required 155 ± 2.07 nM; the “(SI) in vitro COX-2 selectivity index” value was found to be 0.85; the “HillSlope … COX-2 inhibition” value is on record as -0.3826; the “LogIC50 … COX-2 inhibition” value is given as 2.190 Log (nM).
For `Cc1ccc(-c2nnc(SCC(=O)Nc3c(C)n(C)n(-c4ccccc4)c3=O)o2)cc1` [4a, N-(1,5-Dimethyl-3-oxo-2-phenyl-2,3-dihydro-1H-pyrazol-4-yl)-2-((5-(p-tolyl)-1,3,4-oxadiazol-2-yl)thio)acetamide], the melting point was 234 to 236 °C. Further, in data set [1], the IC50 was found to be 178 ± 2.15 nM; the “HillSlope … COX-1 inhibition” value was -0.3744; the “LogIC50 … COX-1 inhibition” value is reported as 2.252 Log (nM). In data set [2], the IC50 was 86.9 ± 2.19 nM; the “(SI) in vitro COX-2 selectivity index” value stood at 2.05; the “HillSlope … COX-2 inhibition” value is on record as -0.3184; the “LogIC50 … COX-2 inhibition” value is 1.939 Log (nM).
Take `Cc1c(NC(=O)CSc2nc(-c3ccc(Br)cc3)c(C#N)c(=O)[nH]2)c(=O)n(-c2ccccc2)n1C` [8c, 2-((4–(4-Bromophenyl)-5-cyano-6-oxo-1,6-dihydropyrimidin-2-yl)thio)-N-(1,5-dimethyl-3-oxo-2-phenyl-2,3-dihydro-1H-pyrazol-4-yl)acetamide]: the melting point was in the range of 243 to 245 °C. Further, in data set [1], the IC50 was found to be 164 ± 2.39 nM; the “HillSlope … COX-1 inhibition” value is -0.2705; the “LogIC50 … COX-1 inhibition” value is recorded as 2.214 Log (nM). For the same molecule, in data set [2], the midpoint of inhibition, the IC50, lay at 130 ± 2.1 nM; the “(SI) in vitro COX-2 selectivity index” value was 1.26; the “HillSlope … COX-2 inhibition” value was -0.3953; the “LogIC50 … COX-2 inhibition” value is 2.113 Log (nM).
Regarding `COc1ccc(NC(=O)Nc2nnc(SCC(=O)Nc3c(C)n(C)n(-c4ccccc4)c3=O)s2)cc1` [6c, N-(1,5-Dimethyl-3-oxo-2-phenyl-2,3-dihydro-1H-pyrazol-4-yl)-2-((5–(3-(4-methoxyphenyl)ureido)-1,3,4-thiadiazol-2-yl)thio)acetamide], the melting point lay within 250 to 252 °C. Further, in data set [1], the IC50 was found to be 282.1 ± 2.34 nM; the “HillSlope … COX-1 inhibition” value is listed as -0.2958; the “LogIC50 … COX-1 inhibition” value is given as 2.450 Log (nM). Also, in data set [2], the IC50 amounted to 86.1 ± 2.26 nM; the “(SI) in vitro COX-2 selectivity index” value turned out to be 3.28; the “HillSlope … COX-2 inhibition” value is -0.3558; the “LogIC50 … COX-2 inhibition” value is 1.935 Log (nM).
`Cc1c(NC(=O)CSc2nc(-c3ccc(Cl)cc3)c(C#N)c(=O)[nH]2)c(=O)n(-c2ccccc2)n1C` [8b, 2-((4–(4-Chlorophenyl)-5-cyano-6-oxo-1,6-dihydropyrimidin-2-yl)thio)-N-(1,5-dimethyl-3-oxo-2-phenyl-2,3-dihydro-1H-pyrazol-4-yl)acetamide] returned a melting point of 239 to 241 °C. Moreover, in data set [1], the IC50 was 209 ± 2.21 nM; the “HillSlope … COX-1 inhibition” value is recorded as -0.3071; the “LogIC50 … COX-1 inhibition” value is given as 2.320 Log (nM). For the same molecule, in data set [2], the IC50 came to 120 ± 2.06 nM; the “(SI) in vitro COX-2 selectivity index” value turned out to be 1.74; the “HillSlope … COX-2 inhibition” value is recorded as -0.3650; the “LogIC50 … COX-2 inhibition” value was 2.079 Log (nM).
In the case of `Cc1ccc(-c2nc(SCC(=O)Nc3c(C)n(C)n(-c4ccccc4)c3=O)[nH]c(=O)c2C#N)cc1` [8a, 2-((5-Cyano-6-oxo-4-(p-tolyl)-1,6-dihydropyrimidin-2-yl)thio)-N-(1,5-dimethyl-3-oxo-2-phenyl-2,3-dihydro-1H-pyrazol-4-yl)acetamide], the melting point is more than 300 °C. Moreover, in data set [1], the IC50 was determined as 139 ± 2.31 nM; the “HillSlope … COX-1 inhibition” value is given as -0.3685; the “LogIC50 … COX-1 inhibition” value was 2.142 Log (nM). Further, in data set [2], the IC50 turned out to be 88.6 ± 2.19 nM; the “(SI) in vitro COX-2 selectivity index” value worked out at 1.57; the “HillSlope … COX-2 inhibition” value is -0.3794; the “LogIC50 … COX-2 inhibition” value is given as 1.948 Log (nM).
For the molecule `Cc1ccc(NC(=O)Nc2nnc(SCC(=O)Nc3c(C)n(C)n(-c4ccccc4)c3=O)s2)cc1` [6b, N-(1,5-Dimethyl-3-oxo-2-phenyl-2,3-dihydro-1H-pyrazol-4-yl)-2-((5–(3-(p-tolyl)ureido)-1,3,4-thiadiazol-2-yl)thio)acetamide], the melting point lay in the range of 253 to 255 °C. Besides, in data set [1], half-maximal inhibition (IC50) was put at 82.3 ± 2.28 nM; the “HillSlope … COX-1 inhibition” value is -0.3398; the “LogIC50 … COX-1 inhibition” value is recorded as 1.915 Log (nM). In addition, in data set [2], it took 104 ± 2.25 nM to reach half-maximal inhibition (IC50); the “(SI) in vitro COX-2 selectivity index” value is given as 0.79; the “HillSlope … COX-2 inhibition” value was -0.2866; the “LogIC50 … COX-2 inhibition” value is on record as 2.016 Log (nM).
Regarding `COc1ccc(-c2nc(SCC(=O)Nc3c(C)n(C)n(-c4ccccc4)c3=O)[nH]c(=O)c2C#N)cc1` [8d, 2-((5-Cyano-4–(4-methoxyphenyl)-6-oxo-1,6-dihydropyrimidin-2-yl)thio)-N-(1,5-dimethyl-3-oxo-2-phenyl-2,3-dihydro-1H-pyrazol-4-yl)acetamide], the melting point was 166 to 168 °C. Moreover, in data set [1], 91.6 ± 2.15 nM corresponded to half-maximal inhibition (IC50); the “HillSlope … COX-1 inhibition” value is -0.3099; the “LogIC50 … COX-1 inhibition” value is on record as 1.962 Log (nM). Also, in data set [2], the IC50 turned out to be 68.7 ± 2.19 nM; the “(SI) in vitro COX-2 selectivity index” value is recorded as 1.33; the “HillSlope … COX-2 inhibition” value is -0.3543; the “LogIC50 … COX-2 inhibition” value is given as 1.837 Log (nM).
